Data as given in a melting point compilation (Tetko et al.; mined from patent text by program, amines drawn as free bases though some values may be those of a salt).

SMILES	melting point
CC(C(=O)O)c1ccc2oc(-c3ccccc3)nc2c1 (configuration not stated)	177 to 179 °C
COC(=O)[C@@H]1CCCN1c1ccc(C)c([N+](=O)[O-])c1O	111 to 114 °C
COc1ccc2c(c1OC)CC=C2c1c[nH]cn1	150 °C
O=C1N(Cc2ncccn2)c2ccccc2C12COc1cc3c(cc12)CCO3 (configuration not stated)	203 to 205 °C
Nc1nnc(-c2ccc3occ(-c4cccc(OC(F)(F)F)c4)c3c2)o1	182 to 183 °C
C=CCN1C(=O)C=C(NC2c3cc4c(cc3C(c3cc(OC)c(O)c(OC)c3)C3C(=O)OCC23)OCO4)C1=O (configuration not stated)	180 to 183 °C
CC(C)CCCC(C)C1CCC2C3CCC4CC(OC(=O)c5ccccc5)CCC4(C)C3CCC12C (configuration not stated)	215 to 216 °C
NC(=O)CC1Cc2cc(Br)cc3[nH]c(=O)c(=O)n1c23 (configuration not stated)	> 300 °C
COc1cc(Cc2cnc(N)nc2N)cc2c1OC(C)(C)C=C2Cl	221 to 222 °C
O=C1CCc2c(Br)cc([N+](=O)[O-])c(O)c21	149 to 151 °C
COc1ccc(C(=O)c2cc(C(=O)c3ccc(OC)cc3)cc(C(=O)c3ccc(OC)cc3)c2)cc1	179 to 183 °C
O=C(CN1C(=O)c2ccccc2C1=O)N1CCN(C(=O)c2cc(C(F)(F)F)cc(C(F)(F)F)c2)[C@H](Cc2c[nH]c3ccccc23)C1	> 220 °C
COc1ccc(NN)c(C)c1	105 °C
CNc1c([N+](=O)[O-])cnc2ccccc12	168 to 170 °C
OC1CCCc2ccc(OCc3ccc4ccccc4n3)cc21 (configuration not stated)	113 to 115 °C
O=C(O)c1cc2cc3c(cc2oc1=O)OCO3	279 to 280 °C
C=CCc1cc2c(cc1O)CCC(=O)N2CC=C(C)C	148 to 150 °C
CC1(C(=O)c2c[nH]c3ncc(-c4cccc(CCCO)c4)nc23)CCCCC1	80 to 83 °C
FC(F)Oc1ccc2c(Cc3c(Cl)cncc3Cl)nnc(N3CCOCC3)c2c1	129 to 131 °C
[N-]=[N+]=NC(=O)c1ccc2c(c1)C(=O)OC2=O	100 to 103 °C
N#CCCc1cccc2ccn(Cc3cccc(/C=C/c4ccc5ccc(Cl)cc5n4)c3)c12	151 °C
CCOC(=O)c1nc(-c2ccc(Cl)cc2Cl)c(-c2ccc(Br)cc2)s1	129 to 130 °C
COC(=O)C(=O)c1c(F)cc(OCCOc2ccc3ccccc3c2)cc1F	130 to 131 °C
COc1cc(C(NC(=O)OC(C)(C)C)C(c2ccccc2)[N+](=O)[O-])ccc1Br (configuration not stated)	157 to 159 °C
C[C@@H](CO)CCn1c(C(=O)NCc2cc(C(F)(F)F)cc(C(F)(F)F)c2)c(-c2ccc(Cl)cc2)c2cccnc2c1=O	259 to 261 °C

SMILES	melting point
CCOc1c(Nc2cc(C3C(C(=O)OC)=C(C)NC(C)=C3C(=O)OC)ccc2F)c(=O)c1=O	203 to 205 °C
Cc1c(CC(C)C(=O)c2cn(C)c3ccccc23)ncn1C(c1ccccc1)(c1ccccc1)c1ccccc1 (configuration not stated)	209 to 210 °C
COc1cccc(/C=C/C(=O)Nc2ccccc2C(=O)O)c1	183 to 184 °C
Cc1cccc(C(O)c2ocnc2C)c1 (configuration not stated)	76.5 to 77.5 °C
CCOC(=O)c1cc(N)ccc1O	40 to 43 °C
CSc1cc(C)c(C(=O)N=C(N)N)cc1S(C)(=O)=O	220 to 222 °C
CNc1nc(-c2ccc(-c3ccccc3)cc2)c(C(=O)OC)s1	> 230 °C
CC(=O)Oc1ccc2cccc(OCC(=O)c3ccccc3)c2n1	141 to 142 °C
C=CCN1C(=O)C(C)N(c2ccc(Cc3ccccc3)cc2)C1=S (configuration not stated)	62 to 64 °C
O=c1cccnn1-c1ccc2nc([C@H]3C[C@H](N4CCCCC4)C3)sc2c1	127 to 128 °C
COc1ccc2oc(=O)c(S(=O)(=O)Nc3ccc(F)c(N)c3)cc2c1	255 to 260 °C
COc1cc(OC)c(C(C)=O)c(O)c1CC=C(C)C	110 to 111 °C
CS(=O)(=O)Nc1cccc(CNC(=O)c2nc3ccccc3c(=O)[nH]2)c1	240 to 248 °C
CC(=O)Nc1ccc(C(=O)Nc2ccc(C(=O)N3CCCCc4ccccc43)cc2)c(Cl)c1	214 to 243 °C
O=c1cc(-c2ccc3ccccc3c2)[nH]c2ccccc12	290 to 292 °C
O=C(NCc1c[nH]c(=S)n1[C@H]1CCc2c(F)cc(F)cc2C1)c1ccccn1	216 to 217 °C
CCOC(=O)C(=NO)c1cccnc1	137 to 138 °C
Cc1ccc(-c2c(-c3ccc(S(C)(=O)=O)cc3)cnn(-c3ccc(F)cc3)c2=O)cc1	242 to 244 °C
CCc1nn(Cc2cccnn2)c(C(N)=O)c1N	171 to 174 °C
O=CC=CC(=C(c1ccc(F)cc1)c1ccc(F)cc1)n1cnnn1	152 to 154 °C
CCCNCC(O)c1cccc(Br)c1 (configuration not stated)	79.7 to 81.4 °C
Cc1cc(-c2nnc3c4ccccc4c(OCc4cncn4C)nn23)no1	236 to 238 °C
Cc1cccc2c1N(CC(=O)c1cccc([N+](=O)[O-])c1)C(=O)C(NC(=O)Nc1cccc(-c3nnn[nH]3)c1)N=C2c1ccccc1F (configuration not stated)	194 to 198 °C
CCCCOc1cc(CN)cc(S(N)(=O)=O)c1Cc1ccccc1	176 to 179 °C
Oc1ccc(-c2nc3ccccc3[nH]2)cc1	286 to 288 °C

SMILES	melting point
O=C(/C=C/c1ccc(S(=O)(=O)N2CCN(C(c3ccc(F)cc3)c3ccc(F)cc3)CC2)cc1)NO	125 to 126 °C
CC(C)(C#N)c1cc(Cn2cnnc2)cc(C(C)(C)C#N)c1	158 to 161 °C
COc1ccc2c(c1)c(-c1ccccc1)nc1nnc(C)n12	251 to 252 °C
COc1ccc(/C=C/c2ccccn2)cc1OC1CCCC1	76 to 77.5 °C
CC(=O)NCC1CC(c2cc(F)c(N3CCN(C(=O)C4COc5ccccc5O4)CC3)c(F)c2)=NO1 (single isomer, unassigned; (-))	158 to 159 °C
CN(C)CCc1cccc(N2C(=O)N(c3c(Cl)cccc3Cl)Cc3cnc(Nc4ccccc4)nc32)c1	101 to 105 °C
N#Cc1cccc(CSc2nnc(-c3ccc4[nH]ncc4c3)o2)c1	172 to 173 °C
CCCc1c(OCCOc2cccc(Sc3ccc(C(=O)O)cc3)c2)ccc(C(C)=O)c1O	144 to 146 °C
OCc1cn(C(c2ccccc2)(c2ccccc2)c2ccccc2)cn1	224 to 227 °C
CS(=O)(=O)c1ccc(-n2cc(-c3ccc(OC(F)(F)F)cc3)nc2-c2ccc(Cl)cc2)cc1	95 to 97 °C
COc1cc(C=CC(=O)c2cc(OC)c(OC)c(OC)c2)cc([N+](=O)[O-])c1O	123 to 125 °C
CC(C)NC(=O)c1nc(-c2ccccc2)c(-c2ccc(=O)n(C(C)C)n2)s1	131 to 132 °C
Cc1cc([N+](=O)[O-])c(NC(C)C(=O)O)c([N+](=O)[O-])c1 (configuration not stated)	158 to 161 °C
Oc1c(Cc2ccccc2)ccc2[nH]ccc12	104 to 106 °C
CC(C)c1ccc(N(Cc2cnn(Cc3ccccc3)c2)C(=O)C2CCCc3c(O)cccc32)cc1 (configuration not stated)	130 °C
C#CCC(C(=CCl)c1cccnc1)c1ccc(Cl)cc1Cl (configuration not stated)	87 to 88 °C
COc1cc(C=O)ccc1OCc1coc(-c2ccccc2)n1	119 to 120 °C
CC(C)(C)OC(=O)NC(C)(C)c1ccc(-c2nc(Nc3ccc(OCCO)cc3)ncc2C#N)cc1	126 to 127 °C
CCOc1ccc(-c2ccc3c(c2)C=C(C(=O)Nc2ccc(CN(C)C4CCOCC4)cc2)CCS3(=O)=O)cc1F	233 to 235 °C
CCN(CC)C(=O)c1cc(O)c(O)c([N+](=O)[O-])c1	145 to 146 °C
COc1ccc(-c2cccc(-c3nc(=O)c4ccccc4s3)n2)cc1	200 to 201 °C
CC(O)c1ccc2nc(NC(=O)c3ccc(C(C)(C)C)cc3)cn2c1 (configuration not stated)	249 to 250 °C
CCCc1ccc(C=NN=Cc2ccc(F)cc2)cc1	70.5 °C
COc1ccc(-c2n[nH]c3ccsc23)cc1	143 to 144 °C
CN(C[C@@H]1C[C@H]1COc1ccc(C(=O)c2ccc(Br)cc2)cc1)C1CC1 (racemic)	136 to 137 °C

SMILES	melting point
CC1(C)Cc2cccc(OC(=O)Cl)c2O1	85 to 87.5 °C
Cn1nnnc1SCC1c2cc(OC(=O)c3cccs3)c(OC(=O)c3cccs3)cc2CCN1C(=O)OCC(Cl)(Cl)Cl (configuration not stated)	139 to 146 °C
Nc1ccc(SCCOC2OC(CO)C(OC3OC(CO)C(O)C(O)C3O)C(O)C2O)cc1 (configuration not stated)	104 to 106 °C
CC(C)NC(=O)N1CCc2[nH]cnc2C1c1ccccn1 (configuration not stated)	240 °C
O=[N+]([O-])c1ccc(Oc2ccc(Oc3ccc(Oc4ccc(Oc5ccc([N+](=O)[O-])cc5)cc4)cc3)cc2)cc1	142 to 143 °C
Clc1ccc2c(NCCN3CCCCC3)ccnc2c1	148 to 151 °C
CC1CCN(C(=O)C2Cc3ccccc3N2c2ccc(=O)n(C)n2)C1 (configuration not stated)	150 to 154 °C
FC(F)(F)c1cc(CBr)c(C(F)(F)F)cc1CBr	80 to 81 °C
O=C(NC(=O)c1ccco1)NC1CCN(Cc2ccc3ccccc3c2)CC1	157 to 159 °C
C=Cc1c(NC(=O)OC(C)(C)C)cccc1[N+](=O)[O-]	120 to 121 °C
C#Cc1cc(F)c(-n2c(=O)cc(C(F)(F)F)n(C)c2=O)c2c1OC(C)C2 (configuration not stated)	69 to 72.5 °C
CNC(=O)c1cc(=NS(=O)(=O)c2ccccc2)c2c(Cl)cc(Cl)cc2[nH]1	196 to 197 °C
CC#CC(=O)N[C@H]1CC[C@H](CCN2CCC(c3cccc4c3CCO4)CC2)CC1	195 °C
CN1Cc2c(Cl)cccc2SCC1=O	122 to 125 °C
COCCn1nc2c(N)nc3ccccc3c2c1CC(C)(C)N	199 to 200 °C
O=C(CC(=O)c1ccccc1O)c1cc(O)c(O)c([N+](=O)[O-])c1	251 to 252 °C
Nc1cccc(C(=O)c2cc3c(Oc4ccc(Cl)cc4)cncc3s2)c1	174 to 178 °C
CN(C)CC1CNc2cc(O)ccc2C1 (configuration not stated)	151 to 152 °C
CC(C)(C)SC(=O)C=CC1C(C(=O)OC(C#N)c2ccc(F)c(Oc3ccccc3)c2)C1(C)C (configuration not stated)	96 °C
CCCCc1nc2c(N)nc3cc(-c4ccc(OC)cc4OC)ccc3c2n1CC(C)C	187 to 189 °C
Cc1cccc(-c2nc(CCOc3ccc(C=CC=C4OC(=O)NC4=O)cc3)c(C)o2)c1	213 to 214 °C
CC(C)SC1=C(O)CC(C)(C)CC1=O	74.5 to 79.5 °C
